{"source": "ChEMBL document CHEMBL1255344", "about": "“Buthionine sulfoximine has anti-Trypanosoma cruzi activity in a murine model of acute Chagas' disease and enhances the efficacy of nifurtimox” (Antimicrob Agents Chemother, 2008)", "key": {"[1]": {"system": "Trypanosoma cruzi", "assay": "Antitrypanosomal activity against Trypanosoma cruzi clone Dm28c metacyclic trypomastigotes infected in mouse assessed as decrease in heart parasitemia at 220 mg/kg/day, ip measured after 20 days", "type": "functional, organism-based"}, "[2]": {"system": "Trypanosoma cruzi", "assay": "Antitrypanosomal activity against Trypanosoma cruzi clone Dm28c metacyclic trypomastigotes infected in mouse assessed as decrease in heart parasite burden at 220 mg/kg/day, ip measured after 20 days", "type": "functional, organism-based"}, "[3]": {"system": "Trypanosoma cruzi", "assay": "Antitrypanosomal activity against Trypanosoma cruzi clone Dm28c metacyclic trypomastigotes infected in BALB/c mouse assessed as increase in survival rate at 30 mg/kg/day, ip measured after 20 days", "type": "functional, organism-based"}, "[4]": {"system": "Trypanosoma cruzi", "assay": "Antitrypanosomal activity against Trypanosoma cruzi clone Dm28c metacyclic trypomastigotes infected in mouse assessed as decrease in heart parasitemia at 30 mg/kg/day, ip measured after 20 days", "type": "functional, organism-based"}, "[5]": {"system": "Trypanosoma cruzi", "assay": "Antitrypanosomal activity against Trypanosoma cruzi clone Dm28c metacyclic trypomastigotes infected in mouse assessed as decrease in heart parasite burden at 30 mg/kg/day, ip measured after 20 days", "type": "functional, organism-based"}, "[6]": {"system": "Trypanosoma cruzi", "assay": "Antitrypanosomal activity against Trypanosoma cruzi clone Dm28c metacyclic trypomastigotes infected in BALB/c mouse assessed as increase in survival rate at 2.5 mg/kg/day, ip measured after 20 days", "type": "functional, organism-based"}, "[7]": {"system": "Trypanosoma cruzi", "assay": "Antitrypanosomal activity against Trypanosoma cruzi clone Dm28c metacyclic trypomastigotes infected in BALB/c mouse assessed as increase in survival rate at 10 mg/kg/day, ip measured after 20 days", "type": "functional", "details": "480 h, route intraperitoneal"}, "[8]": {"system": "Trypanosoma cruzi", "assay": "Antitrypanosomal activity against Trypanosoma cruzi clone Dm28c metacyclic trypomastigotes infected in BALB/c mouse assessed as increase in survival rate at 220 mg/kg/day, ip measured after 20 days (reference value: 25%)", "type": "functional"}, "[9]": {"system": "Mus musculus", "assay": "Toxicity in BALB/c mouse at 220 mg/kg/day, ip measured after 20 days", "type": "organism-based", "set-up": "route intraperitoneal", "details": "in vivo, 480 h"}}, "note": "Active and inactive are the calls of the source. The rule behind the calls is not given here."}
{"compound": "CCCCS(=N)(=O)CCC(N)C(=O)O", "note": "(stereo not given) [BUTHIONINE SULFOXIMINE]", "values": [{"measurement": "Activity", "setting": "[1]", "result": "Active"}, {"measurement": "Activity", "setting": "[2]", "result": "Active"}, {"measurement": "Activity", "setting": "[3]", "result": "inactive"}, {"measurement": "Activity", "setting": "[4]", "result": "inactive"}, {"measurement": "Activity", "setting": "[5]", "result": "inactive"}, {"measurement": "Activity", "setting": "[6]", "result": "inactive"}, {"measurement": "survival at 10 mg/kg/day", "setting": "[7]", "result": "≤ 100", "unit": "%"}, {"measurement": "Activity", "setting": "[8]", "result": "Active"}, {"measurement": "survival at 220 mg/kg/day", "setting": "[8]; 480 h, route intraperitoneal", "result": "≤ 80", "unit": "%"}, {"measurement": "Activity", "setting": "[9]", "result": "Non-toxic"}]}
